In the experiment the target is T1, histamine H3 receptor (Rattus norvegicus, UniProt Q9QYN8).
T1 construct: from tissue; host or cells: rat striatum (Sprague-Dawley, male, 6 weeks), membrane homogenate
In words: Histamine H3 receptor binding assay ([3H]-Nα-methylhistamine binding to rat striatum homogenate). As to conditions: 1 μmol/L test compound; [3H]-Nα-methylhistamine 1 nmol/L; striata of Sprague-Dawley male rats, 25° C., 1 hour; read-out: Inhibition ratio of [3H]-Nα-methylhistamine binding. On the procedure: To the striata of Sprague-Dawley male rats (6 weeks of age), a 10-fold volume of lysis buffer {50 mmol/L [[…] (Tris)]/HCl (pH 7.4), 5 mmol/L ethylenediaminetetraacetic acid (EDTA), a protease inhibitor mixture [1 mg/mL phenylmethylsulfonyl fluoride (PMSF), 1 μg/mL pepstatin A, 1 μg/mL leupeptin, 1 μg/mL chymostatin]} was added and the striata were homogenized. The resulting homogenate was centrifuged (30,000×g, 4° C., 30 min), and the obtained precipitate was resuspended in a 10-fold volume of lysis buffer, followed by centrifugation under the same condition. To the obtained precipitate, a 3-fold volume of lysis buffer was added to suspend the precipitate, and the resulting tissue homogenate was used for a test.
A test compound was dissolved in an assay buffer [50 mmol/L Tris/HCl (pH 7.4), 5 mmol/L EDTA], and [^3H]-N^α-methylhistamine (1 nmol/L) and the tissue homogenate (20 μg, in terms of protein amount) were added thereto, and then, the mixture was incubated at 25° C. for 1 hour. Then, the reaction was terminated by rapid suction filtration on a glass filter [GF/B: Whatman, previously soaked in 0.3 w/v % polyethylenimine for about 30 min]. Then, the glass filter was washed three times with 3 mL of assay buffer. This glass filter was transferred into a scintillation vial and dried at 60° C. for 30 minutes. Then, 0.5 mL of Ultimagold (Perkin Elmer) was added thereto, and the radioactivity (binding amount of [^3H]-N^α-methylhistamine) was measured using a liquid scintillation counter. The obtained value was used as a binding amount in the presence of the test compound. The same procedure as described above was carried out in the absence of the test compound, and the binding amount of [^3H]-N^α-methylhistamine obtained at this time was used as a binding amount in the absence of the test compound. Further, the binding amount of [^3H]-N^α-methylhistamine obtained in the presence of 10 μmol/L thioperamide was used as a non-specific binding amount. An inhibitory action of [^3H]-N^α-methylhistamine binding was represented by an inhibition ratio in terms of 1 μmol/L of the test compound calculated by the following Equation (1).
Inhibition ratio(%)={1−[(Binding amount in the presence of test compound)−(Non-specific binding amount)]/[(Binding amount in the absence of test compound)−(Non-specific binding amount)]}×100 (1)

For 25 compounds, inhibition results are on record in patent US20090181948A1, “DIAMINE DERIVATIVE” (KYOWA HAKKO KOGYO CO., LTD., priority 2005, published 2009).

Where only a bound is given, the exact number is not on record here.

T1 sequence (Q9QYN8 whole entry): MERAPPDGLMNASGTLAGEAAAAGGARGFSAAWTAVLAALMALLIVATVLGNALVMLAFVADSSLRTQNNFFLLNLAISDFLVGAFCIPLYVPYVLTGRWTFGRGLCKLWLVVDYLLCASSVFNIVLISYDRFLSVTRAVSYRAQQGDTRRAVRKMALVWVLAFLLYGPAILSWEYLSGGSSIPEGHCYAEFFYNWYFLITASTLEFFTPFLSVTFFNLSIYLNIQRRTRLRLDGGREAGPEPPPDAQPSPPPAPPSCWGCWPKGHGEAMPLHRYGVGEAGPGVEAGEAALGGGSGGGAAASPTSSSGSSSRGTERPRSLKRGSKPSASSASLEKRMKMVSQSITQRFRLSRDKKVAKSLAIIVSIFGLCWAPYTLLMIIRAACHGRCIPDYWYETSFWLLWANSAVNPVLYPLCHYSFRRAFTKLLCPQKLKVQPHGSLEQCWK

Turning to `CC1CCCN1CCCN1CCN(CCCN2CCC(=O)CC2)C1=C(C#N)C#N` (stereo not shown) [Compound 203, {1-[3-(2-Methylpyrrolidin-1-yl)propyl]-3-[3-(4-oxopiperidino)propyl]imidazolidin-2-ylidene}malononitrile], the inhibition at 1 µM was no less than 80%. Next, `CC1CCCN1CCCN1CCN(CCCN2CC=CCC2)C1=C(C#N)C#N` (stereo not shown) [Compound 92, {1-[3-(1,2,3,6-Tetrahydropyridin-1-yl)propyl]-3-[3-(2-methylpyrrolidin-1-yl)propyl]imidazolidin-2-ylidene}malononitrile]: no less than 80%. `CC1CCCN(CCCN2CCN(CCCN3CC(C)CC(C)C3)C2=C(C#N)C#N)C1` (stereo not shown) [Compound 105, {1-[3-(3,5-Dimethylpiperidino)propyl]-3-[3-(3-methylpiperidino)propyl]imidazolidin-2-ylidene}malononitrile]: the inhibition at 1 µM was no less than 80%. For the compound `CC1CCCN(CCN2CCN(CCCN3CCC[C@@H]3C)C2=C(C#N)C#N)C1` (stereo partly drawn) [Compound 199, {3-[2-(3-Methylpiperidino)ethyl]-1-[3-((S)-2-methylpyrrolidin-1-yl)propyl]imidazolidin-2-ylidene}malononitrile], the inhibition at 1 µM is no less than 80%. Next, `N#CC(C#N)=C1N(CCCN2CCCC2)CCN1CCCN1CCOCC1` [Compound 82, {1-(3-Morpholinopropyl)-3-[3-(pyrrolidin-1-yl)propyl]imidazolidin-2-ylidene}malononitrile]: no less than 80%. Next, `CC1CCCN1CCN1CCN(CCCN2CCCC2)C1=C(C#N)C#N` (stereo not shown) [Compound 54, {1-[2-(2-Methylpyrrolidin-1-yl)ethyl]-3-[3-(3-pyrrolidin-1-yl)propyl]imidazolidin-2-ylidene}malononitrile]: no less than 80%; `CC1CC(C)CN(CCN2CCN(CCCN3CCCCC3)C2=C(C#N)C#N)C1` (stereo not shown) [Compound 13, {1-[2-(3,5-Dimethylpiperidino)ethyl]-3-(3-piperidinopropyl)imidazolidin-2-ylidene}malononitrile]: no less than 80%; `CC1CCCN1CCCN1CCCN(CCCN2CCCC2C)C1=C(C#N)C#N` (stereo not shown) [Compound 123, {1,3-Bis[3-(2-methylpyrrolidin-1-yl)propyl]hexahydropyrimidin-2-ylidene}malononitrile]: no less than 80%. The value for `C[C@H]1CCCN1CCCCN1CCN(CCN2CCC[C@@H]2C)C1=C(C#N)C#N` [Compound 190, {1-[4-((S)-2-methylpyrrolidin-1-yl)butyl]-3-[2-((S)-2-methylpyrrolidin-1-yl)ethyl]imidazolidin-2-ylidene}malononitrile] was no less than 80%. For the compound `N#CC(C#N)=C1N(CCCN2CC=CCC2)CCN1CCCN1CCCCC1` [Compound 90, {1-[3-(1,2,3,6-Tetrahydropyridin-1-yl)propyl]-3-(3-piperidinopropyl)imidazolidin-2-ylidene}malononitrile], the inhibition at 1 µM is no less than 80%. Consider `CC1CCCN1CCCN1CCN(CCCN2CCCC2)C1=C(C#N)C#N` (stereo not shown) [Compound 97, {1-[3-(2-Methylpyrrolidin-1-yl)propyl]-3-[3-(pyrrolidin-1-yl)propyl]imidazolidin-2-ylidene}malononitrile], for which the inhibition at 1 µM is no less than 80%.

Turning to `CC1CC(C)CN(CCCN2CCN(CCCN3C(C)CCCC3C)C2=C(C#N)C#N)C1` (stereo not shown) [Compound 108, {1-[3-(2,6-Dimethylpiperidino)propyl]-3-[3-(3,5-dimethylpiperidino)propyl]imidazolidin-2-ylidene}malononitrile], the inhibition at 1 µM was no less than 80%. The value for `N#CC(C#N)=C1N(CCCN2CCCCC2)CCN1CCCN1CCCC1` [Compound 95, {1-(3-Piperidinopropyl)-3-[3-(pyrrolidin-1-yl)propyl]imidazolidin-2-ylidene}malononitrile] was no less than 80%; that for `CC1CC(C)CN(CCN2CCN(CCCN3CCC(C#N)CC3)C2=C(C#N)C#N)C1` (stereo not shown) [Compound 42, {1-[3-(4-Cyanopiperidino)propyl]-3-[2-(3,5-dimethylpiperidino)ethyl]imidazolidin-2-ylidene}malononitrile] was no less than 80%.

Turning to `N#CC(C#N)=C1N(CCCN2CCCCC2)CCN1CCCN1CCC(O)C1` (stereo not shown) [Compound 101, {1-[3-(3-Hydroxypyrrolidin-1-yl)propyl]-3-(3-piperidinopropyl)imidazolidin-2-ylidene}malononitrile], the inhibition at 1 µM is no less than 80%. On to `N#CC(C#N)=C1N(CCCN2CCc3ccccc3C2)CCN1CCN1CCCCC1` [Compound 52, {1-[3-(1,2,3,4-Tetrahydroisoquinolin-2-yl)propyl]-3-(2-piperidinoethyl)imidazolidin-2-ylidene}malononitrile], for which the inhibition at 1 µM is no less than 80%. The value for `CN1CCN(CCCN2CCN(CCCN3CCCCC3)C2=C(C#N)C#N)CC1` [Compound 76, {1-[3-(4-Methylpiperazin-1-yl)propyl]-3-(3-piperidinopropyl)imidazolidin-2-ylidene}malononitrile] was no less than 80%.

As for `CC1CC(C)CN(CCCN2CCN(CCCN3CCC(O)C3)C2=C(C#N)C#N)C1` (stereo not shown) [Compound 107, {1-[3-(3,5-Dimethylpiperidino)propyl]-3-[3-(3-hydroxypyrrolidin-1-yl)propyl]imidazolidin-2-ylidene}malononitrile], the inhibition at 1 µM is no less than 80%. Next, `CC1CCCN(CCCN2CCN(CCCN3CCCC3C)C2=C(C#N)C#N)C1` (stereo not shown) [Compound 112, {1-[3-(3-Methylpiperidino)propyl]-3-[3-(2-methylpyrrolidin-1-yl)propyl]imidazolidin-2-ylidene}malononitrile]: no less than 80%; `N#CC(C#N)=C1N(CCCN2CCCCC2)CCN1CCCN1CCOCC1` [Compound 83, [1-(3-Morpholinopropyl)-3-(3-piperidinopropyl)imidazolidin-2-ylidene]malononitrile]: no less than 80%; `N#CC(C#N)=C1N(CCCN2CC=CCC2)CCN1CCCN1CC=CCC1` [Compound 88, {1,3-bis[3-(1,2,3,6-Tetrahydropyridin-1-yl)propyl]imidazolidin-2-ylidene}malononitrile]: no less than 80%.

As to `C[C@@H]1CCCN1CCN1CCN(CCCN2CCC[C@@H]2C)C1=C(C#N)S(=O)(=O)c1ccccc1` [Compound 243, {3-[2-((R)-2-methylpyrrolidin-1-yl)ethyl]-1-[3-((S)-2-methylpyrrolidin-1-yl)propyl]imidazolidin-2-ylidene}benzenesulfonylacetonitrile], the inhibition at 1 µM is no less than 80%. The value for `N#CC(C#N)=C1N(CCCN2CCC(C#N)CC2)CCN1CCN1CCCCC1` [Compound 40, {1-[3-(4-Cyanopiperidino)propyl]-3-(2-piperidinoethyl)imidazolidin-2-ylidene}malononitrile] was no less than 80%; that for `CN(CCCN1CCC(F)(F)C1)C(=C(C#N)C#N)N1CCC(N2CCCCC2)CC1` [Compound 169, ({N-[3-(3,3-difluoropyrrolidin-1-yl)propyl]-N-methylamino}(4-piperidinopiperidino)methylene)malononitrile] was no less than 80%. Turning to `N#CC(C#N)=C1N(CCCN2CCCC2)CCN1CCCN1CCCC1` [Compound 94, {1,3-Bis[3-(pyrrolidin-1-yl)propyl]imidazolidin-2-ylidene}malononitrile], the inhibition at 1 µM is no less than 80%.
